# Measured values reported in paper PMC5007552, “The hVps34‐SGK3 pathway alleviates sustained PI3K/Akt inhibition by stimulating mTORC1 and tumour growth” (The EMBO Journal, 2016).
# Where “and” joins values, the source holds several entries; their conditions need not be identical. Identical values can stand only once.
# System: ZR-75-1 cells
# Assay: NanoString human kinome mRNA quantification
# Assay type: cell-based
# From the text: Human mRNAs were hybridised to NanoString human kinome and control code sets, then subjected to quantification using NanoString software. […] To permit data compaction, and simple kinome‐wide comparisons, the fold changes are log2 transformed. […] Cell pellets were resuspended at a concentration of ~6,500 cells/μl in RLT buffer (Qiagen). […] For total copy numbers, triplicate normalised count values were averaged, and to calculate fold induction, means were divided by triplicate mean values from matched DMSO controls. P‐values were calculated using unpaired t‐test (GraphPad Prism software) by employing treated and control count data for each kinase mRNA.
structure (smiles),measurement,setting,value
NC1(c2ccc(-c3nc4ccn5c(=O)[nH]nc5c4cc3-c3ccccc3)cc2)CCC1 [MK-2206],MAST2 Normalised counts (single replicates),"MAST2 mRNA, replicates 1-3",738.65 and 699.23 and 725.5
same,MAST3 Normalised counts (single replicates),"MAST3 mRNA, replicates 1-3",218.81
same,MAST4 Normalised counts Average,"MAST4 mRNA, average of 3",166.143
same,MAST4 Normalised counts (single replicates),"MAST4 mRNA, replicates 1-3",166 and 165.82 and 166.61
same,MASTL Normalised counts Average,"MASTL mRNA, average of 3",679.5
same,MASTL Normalised counts (single replicates),"MASTL mRNA, replicates 1-3",701.38 and 631.47 and 705.65
same,MATK Normalised counts (single replicates),"MATK mRNA, replicates 1-3",210.28
same,MERTK Normalised counts Average,"MERTK mRNA, average of 3",1
same,MERTK Normalised counts (single replicates),"MERTK mRNA, replicates 1-3",1
same,MET Normalised counts Average,"MET mRNA, average of 3",45.06
same,MET Normalised counts (single replicates),"MET mRNA, replicates 1-3",44.2 and 35.51 and 55.47
same,MINK1 Normalised counts Average,"MINK1 mRNA, average of 3",1315.77
same,MINK1 Normalised counts (single replicates),"MINK1 mRNA, replicates 1-3",1338.56 and 1283.89 and 1324.87
same,Average normalised counts,MKNK1 mRNA,747.723
same,Average normalised counts,MKNK2 mRNA,1542.12
same,Average normalised counts,MLKL mRNA,206.987
same,Average normalised counts,MOK mRNA,276.793
same,Average normalised counts,MOS mRNA,1.463
same,Average normalised counts,MST1R mRNA,587.597
same,Average normalised counts,MST4 mRNA,1197.2
same,Average normalised counts,MTOR mRNA,1169.76
same,Average normalised counts,MUSK mRNA,1
same,Average normalised counts,MYLK2 mRNA,3.573
same,Average normalised counts,MYLK3 mRNA,4.65
same,Average normalised counts,MYLK4 mRNA,3.183
same,Average normalised counts,MYLK mRNA,35.0933
same,Average normalised counts,MYO3B mRNA,1.693
same,Average normalised counts,NEK1 mRNA,126.33
same,Average normalised counts,NEK2 mRNA,1658.91
same,Average normalised counts,NEK3 mRNA,279.833
same,Average normalised counts,NEK5 mRNA,63.3867
same,Average normalised counts,NEK6 mRNA,316.677
same,Average normalised counts,NEK7 mRNA,1505.67
same,Average normalised counts,NEK8 mRNA,178.517
same,Average normalised counts,NEK9 mRNA,368.757
same,Average normalised counts,NEK10 mRNA,2.217
same,Average normalised counts,NIM1 mRNA,1.163
same,Average normalised counts,NLK mRNA,173.16
same,Average normalised counts,NPR1 mRNA,1
same,Average normalised counts,NPR2 mRNA,1
same,Average normalised counts,NRBP1 mRNA,1653.03
same,Average normalised counts,NRBP2 mRNA,1124.63
same,Average normalised counts,NRK mRNA,29.1233
same,Average normalised counts,NTRK1 mRNA,2.95
same,Average normalised counts,NTRK2 mRNA,77.2267
same,Average normalised counts,NTRK3 mRNA,11.2267
same,Average normalised counts,NUAK1 mRNA,101.57
same,Average normalised counts,NUAK2 mRNA,96.2433
same,Average normalised counts,OBSCN mRNA,96.8
same,Average normalised counts,OXSR1 mRNA,220.06
same,Average normalised counts,PAK1 mRNA,710.853
same,Average normalised counts,PAK2 mRNA,2547.5
same,Average normalised counts,PAK3 mRNA,3.48
same,Average normalised counts,PAK4 mRNA,1206.53
same,Average normalised counts,PAK6 mRNA,64.56
same,Average normalised counts,PAK7 mRNA,2.957
same,Average normalised counts,PAN3 mRNA,788.86
same,"ROCK2 normalised counts, average","ROCK2 mRNA, average of 3 replicates",1654.49
same,ROCK2 normalised counts,"ROCK2 mRNA, single replicates",1580.35 and 1693.07 and 1690.04
same,"ROR1 normalised counts, average","ROR1 mRNA, average of 3 replicates",3.17
same,ROR1 normalised counts,"ROR1 mRNA, single replicates",1.48 and 3.37 and 4.66
same,"ROR2 normalised counts, average","ROR2 mRNA, average of 3 replicates",177.843
same,ROR2 normalised counts,"ROR2 mRNA, single replicates",183.27 and 188.41 and 161.85
same,"ROS1 normalised counts, average","ROS1 mRNA, average of 3 replicates",1
same,ROS1 normalised counts,"ROS1 mRNA, single replicates",1
same,"RPS6KA1 normalised counts, average","RPS6KA1 mRNA, average of 3 replicates",743.577
same,RPS6KA1 normalised counts,"RPS6KA1 mRNA, single replicates",752.28 and 733.11 and 745.34
same,"RPS6KA2 normalised counts, average","RPS6KA2 mRNA, average of 3 replicates",42.18
same,RPS6KA2 normalised counts,"RPS6KA2 mRNA, single replicates",39.65 and 43.33 and 43.56
same,"RPS6KA3 normalised counts, average","RPS6KA3 mRNA, average of 3 replicates",81.17
same,RPS6KA3 normalised counts,"RPS6KA3 mRNA, single replicates",77.83 and 82.42 and 83.26
same,"RPS6KA4 normalised counts, average","RPS6KA4 mRNA, average of 3 replicates",830.71
same,RPS6KA4 normalised counts,"RPS6KA4 mRNA, single replicates",858.63 and 809.56 and 823.94
same,"RPS6KA5 normalised counts, average","RPS6KA5 mRNA, average of 3 replicates",131.06
same,RPS6KA5 normalised counts,"RPS6KA5 mRNA, single replicates",126.01 and 136.28 and 130.89
same,"RPS6KA6 normalised counts, average","RPS6KA6 mRNA, average of 3 replicates",136.14
same,RPS6KA6 normalised counts,"RPS6KA6 mRNA, single replicates",127.82 and 135.42 and 145.18
same,"RPS6KB1 normalised counts, average","RPS6KB1 mRNA, average of 3 replicates",1559.99
same,RPS6KB1 normalised counts,"RPS6KB1 mRNA, single replicates",1574.89 and 1571.44 and 1533.65
same,"RPS6KB2 normalised counts, average","RPS6KB2 mRNA, average of 3 replicates",3538.09
same,RPS6KB2 normalised counts,"RPS6KB2 mRNA, single replicates",3546.44 and 3576.5 and 3491.33
same,"RPS6KC1 normalised counts, average","RPS6KC1 mRNA, average of 3 replicates",1368.65
same,RPS6KC1 normalised counts,"RPS6KC1 mRNA, single replicates",1361.29 and 1349.92 and 1394.73
same,"RPS6KL1 normalised counts, average","RPS6KL1 mRNA, average of 3 replicates",85.8967
same,RPS6KL1 normalised counts,"RPS6KL1 mRNA, single replicates",86.01 and 87.63 and 84.05
same,"RYK normalised counts, average","RYK mRNA, average of 3 replicates",1136.11
